Biological target: GST tagged IRAK4 (Homo sapiens (Human), UniProt Q9NWZ3)
Test: IRAK4 Kinase Assay (IMAP fluorescence polarization)
Assay type: biochemical
Conditions: 0.5 nM GST tagged IRAK4, 100 nM fluorescent peptide substrate RP7030, 100 μM ATP, 30 minutes at 25° C., IMAP FP readout
Procedure: The kinase activity of IRAK4 is determined by its ability to catalyze the phosphorylation of a fluorescent polypeptide substrate. The extent of phosphorylation is measured using the IMAP technology (Molecular Devices) where the phosphorylated fluorescent substrate binds to the large M(III)-based nanoparticles which reduces the rotational speed of the substrate and thus increases its fluorescent polarization (FP).
20 μL reaction mixture contains 10 mM TriHCl, pH 7.2, 0.5 nM GST tagged IRAK4 (SignalChem), 100 nM fluorescent peptide substrate (RP7030, Molecular Devices), 100 μM ATP, 1 mM DDT, 1 mM MgCl2, and 0.01% Tween 20. The reaction is initiated by the addition of ATP. After incubation for 30 minutes at 25° C., 60 μL of Progressive IMAP Reagent (Molecular Devices) is added to stop the reaction. Change in RP7030's FP is determined by a FP reader (Analyst HT, LJL BioSystems).

Chain of GST tagged IRAK4 (Q9NWZ3 whole entry): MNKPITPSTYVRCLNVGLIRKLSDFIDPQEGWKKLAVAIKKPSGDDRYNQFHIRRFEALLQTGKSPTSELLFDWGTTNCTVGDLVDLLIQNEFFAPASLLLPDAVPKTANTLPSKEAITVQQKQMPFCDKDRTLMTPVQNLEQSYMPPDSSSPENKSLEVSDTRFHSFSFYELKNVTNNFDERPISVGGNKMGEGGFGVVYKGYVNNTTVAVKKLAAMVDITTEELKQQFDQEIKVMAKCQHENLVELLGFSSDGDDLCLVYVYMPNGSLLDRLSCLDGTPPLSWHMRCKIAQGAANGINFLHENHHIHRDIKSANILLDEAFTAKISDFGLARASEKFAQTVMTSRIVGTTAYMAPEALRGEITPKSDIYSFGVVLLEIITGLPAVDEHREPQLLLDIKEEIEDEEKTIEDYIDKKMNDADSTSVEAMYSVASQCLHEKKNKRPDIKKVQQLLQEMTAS

SMILES | IC50 [nM]
Cc1ccc2ncnc(N[C@H]3CC[C@H](NCC4(C)COC4)CC3)c2c1 [Example 2-27, trans-N-[(3-methyloxetan-3-yl)methyl]-N′-(6-methylquinazolin-4-yl)cyclohexane-1,4-diamine] | 77
Cc1ccc2ncnc(N[C@H]3CC[C@H](NCC(C)(C)C)CC3)c2c1 [Example 2-29, trans-N-(2,2-dimethylpropyl)-N′-(6-methylquinazolin-4-yl)cyclohexane-1,4-diamine] | 69
Cc1ccc2ncnc(N[C@H]3CC[C@H](N[C@@H](C)C(F)F)CC3)c2c1 [Example 2-30, trans-N-[(1S)-2,2-difluoro-1-methylethyl]-N′-(6-methylquinazolin-4-yl)cyclohexane-1,4-diamine] | 126
Cc1ccc2ncnc(N[C@H]3CC[C@H](N[C@@H](C)CS(C)(=O)=O)CC3)c2c1 [Example 2-31, trans-N-[(1S)-1-methyl-2-(methylsulfonyl)ethyl]-N′-(6-methylquinazolin-4-yl)cyclohexane-1,4-diamine] | 56
CN(C)[C@H]1CC[C@H](Nc2ncnc3ccc(/C=C/C4CC4)cc23)CC1 [Example 3-1, (trans)-N1-(6-((E)-2-cyclopropylvinyl)quinazolin-4-yl)-N4,N4-dimethylcyclohexane-1,4-diamine] | 145
N#CCCCc1ccc2ncnc(N[C@H]3CC[C@H](N4CCOCC4)CC3)c2c1 [Example 3-5, 4-(4-(((trans)-4-morpholinocyclohexyl)amino)quinazolin-6-yl)butanenitrile] | 142
OCCCCc1ccc2ncnc(N[C@H]3CC[C@H](N4CCOCC4)CC3)c2c1 [Example 5-3, 4-{4-[(trans-4-morpholin-4-ylcyclohexyl)amino]quinazolin-6-yl}butan-1-ol] | 68
Cc1ccc2ncnc(N[C@H]3CC[C@H](N4CCS(=O)(=O)CC4)CC3)c2c1 [Example 6-1, 4-((trans)-4-((6-methylquinazolin-4-yl)amino)cyclohexyl)thiomorpholine-1,1-dioxide] | 623
Cc1ccc2ncnc(N[C@H]3CC[C@H](N4CC5(COC5)C4)CC3)c2c1 [Example 6-2, N-((trans)-4-(2-oxa-6-azaspiro[3.3]heptan-6-yl)cyclohexyl)-6-methylquinazolin-4-amine] | 101
CC(O)CCc1ccc2ncnc(N[C@H]3CC[C@H](N4CCOCC4)CC3)c2c1 (stereo partly drawn) [Example 7-1, 4-(4-(((trans)-4-Morpholinocyclohexyl)amino)quinazolin-6-yl)butan-2-ol] | 62

Stronger by IC50, values ahead:

IC50 [nM] | SMILES
54 | COC/C=C/c1ccc2ncnc(N[C@H]3CC[C@H](N(C)C)CC3)c2c1 [Example 3-3, trans-N′-{6-[(1E)-3-methoxyprop-1-en-1-yl]quinazolin-4-yl}-N,N-dimethylcyclohexane-1,4-diamine]
47 | Cc1ccc2ncnc(N[C@H]3CC[C@H](NCc4ccnn4C)CC3)c2c1 [Example 2-26, trans-N-[(1-methyl-1H-pyrazol-5-yl)methyl]-N′-(6-methylquinazolin-4-yl)cyclohexane-1,4-diamine]
34 | CCCCc1ccc2ncnc(N[C@H]3CC[C@H](N4CCOCC4)CC3)c2c1 [Example 4-3, 6-butyl-N-(trans-4-morpholin-4-ylcyclohexyl)quinazolin-4-amine]
31 | Cc1ccc2ncnc(N[C@H]3CC[C@H](NCC4CC4)CC3)c2c1 [Example 2-25, trans-N-(cyclopropylmethyl)-N′-(6-methylquinazolin-4-yl)cyclohexane-1,4-diamine]
29 | CC(O)c1ccc2ncnc(N[C@H]3CC[C@H](N(C)C)CC3)c2c1 (stereo partly drawn) [Example 5-4, 1-(4-{[trans-4-(dimethylamino)cyclohexyl]amino}quinazolin-6-yl)ethanol]
29 | CN(C)[C@H]1CC[C@H](Nc2ncnc3ccc(CO)cc23)CC1 [Example 8-1, (4-(((trans)-4-(dimethylamino)cyclohexyl)amino)quinazolin-6-yl)methanol]
25 | Cc1ccc2ncnc(N[C@H]3CC[C@H](NCCC(F)(F)F)CC3)c2c1 [Example 2-28, trans-N-(6-methylquinazolin-4-yl)-N′-(3,3,3-trifluoropropyl)cyclohexane-1,4-diamine]
18 | CCc1ccc2ncnc(N[C@H]3CC[C@H](N(C)C)CC3)c2c1 [Example 4-1, (trans)-N1-(6-ethylquinazolin-4-yl)-N4,N4-dimethylcyclohexane-1,4-diamine]
17 | CN(C)[C@H]1CC[C@H](Nc2ncnc3ccc(CCO)cc23)CC1 [Example 5-1, 2-(4-(((trans)-4-(dimethylamino)cyclohexyl)amino)quinazolin-6-yl)ethan-1-ol]
16 | CC(C)c1ccc2ncnc(NC3CCC(N(C)C)CC3)c2c1 (stereo not drawn) [Example 4-2, N,N-dimethyl-N′-[6-(1-methylethyl)quinazolin-4-yl]cyclohexane-1,4-diamine]
11 | CCCc1ccc2ncnc(N[C@H]3CC[C@H](N4CCOCC4)CC3)c2c1 [Example 4-4, N-(trans-4-morpholin-4-ylcyclohexyl)-6-propylquinazolin-4-amine]
10 | OCCCc1ccc2ncnc(N[C@H]3CC[C@H](N4CCOCC4)CC3)c2c1 [Example 5-2, 3-{4-[(trans-4-morpholin-4-ylcyclohexyl)amino]quinazolin-6-yl}propan-1-ol]
8 | CCc1ccc2ncnc(N[C@H]3CC[C@H](N4CCOCC4)CC3)c2c1 [Example 3-4, 6-ethyl-N-(trans-4-morpholin-4-ylcyclohexyl)quinazolin-4-amine]
7 | C=Cc1ccc2ncnc(NC3CCC(N(C)C)CC3)c2c1 (stereo not drawn) [Example 3-2, N′-(6-ethenylquinazolin-4-yl)-N,N-dimethylcyclohexane-1,4-diamine]

From patent US9926330B2, “Inhibitors of IRAK4 activity” (MERCK SHARP & DOHME CORP., priority 2014, dated 2018)
